Experimental data: patent US20210379062A1, “The use of a H3R inverse agonist for the treatment of excessive daytime sleepiness associated with parkinson's disease (PD)” (Novartis AG, priority 2018, published 2021)

Tests used:
[1] = tested on: tele-methylhistamine (tMeHA); assay: Ex vivo PD determination: brain tele-methylhistamine time course in rats; parameters: species or system rat; details: 10 mg/kg oral
Method: Male Sprague-Dawley rats (Shanghai SLAC Laboratory Animal Co. LTD) of 6-7 weeks age were used. Animals were housed in a temperature and humidity-controlled environment on a 12 h light/dark. All animals had free access to food and water. All procedures were approved by Institutional Animal Care and Use Committee of ChemPartner Co., LTD (IACUC Protocol NO: A998HL0002).
For bioanalysis of brain tissue tele-methylhistamine samples were further processed.
One aliquot of the stock solution was diluted using ethanol/phosphate buffer pH 7.4 (85:15, v/v) to achieve a series working solutions. The brain homogenate was centrifuged at 12000 rpm for 5 min at 4° C. Then 10 μL supernatant of the brain homogenate sample was added to 60 μL internal standard (d3-1-methyl-histamine, 20 ng/mL). The mixture was vortexed for 2 min and centrifuged at 12000 rpm for 5 min at 4° C. Finally, 60 μL supernatant was added and 3 μL supernatant was injected into LC-MS/MS for analysis (Agilent 6410, triple quadrupole mass spectrometer, Mobile phase A: H2O— 0.1% NH3, Mobile phase B: methanol— 0.1% NH3, Column: Ultimate XB-C18 (2.1×50 mm, 5 μm, Flow rate: 0.45 mL/min, temperature: 40° C.).

[2] = First-in-human SAD/MAD study: safety, tolerability, night sleep duration, formulation effect; type: in vivo
Method: An open-label, adaptive design study was performed in healthy volunteers to characterize regional brain H3 receptor occupancy following single dose of Compound (I) by using positron emission tomography (PET) with the radioligand [^11C]MK-8278 (Van Laere, K. J. et al, Journal of Nuclear Medicine, 2014, 55: 65-72). The primary objective of this study was to evaluate the plasma concentration of Compound (I) leading to 50% occupancy of H3 receptors in the brain (EC50). A total of 6 subjects were enrolled into the study and were scanned in three cohorts of two subjects each. Prior to dosing with Compound (I), each subject underwent a baseline PET scan to assess binding of [^11C]MK-8278 to H3R in the absence of Compound (I). Subjects subsequently received single oral doses of Compound (I) and then underwent two post-dose PET scans. Subjects of cohort 1 received a single oral dose of 300 mg of Compound (I), corresponding to the single dose maximum tolerated dose (MTD) determined from the Phase I study after single oral dose of Compound (I). These subjects underwent two post-dose PET scans, at 3 hours and 27 hours after dosing. The doses and scan timings for the subsequent cohorts were selected based on interim data analyses following the completion of the preceding cohort(s). Subjects of cohorts 2 and 3 received a single oral dose of 10 mg and 0.3 mg, respectively. Compound (I) was administered as capsules in cohorts 1 and 2, whereas cohort 3 received Compound (I) as an oral solution. […] The first post-dose PET scan for cohorts 2 and 3 was acquired at 3 hours and the second one at 27 hours and 8 hours after dosing, respectively.
PK data (drug concentration over time) from Part 1 and Part 2 of the Phase I study were used in the development of the model: • 1) Part 1 is the Single Ascending Dose part; 8 different cohorts were used, with each cohort composed of 6 active subjects and 2 placebo subjects. The dose amounts used in the 8 cohorts were 0.3, 1, 3, 10, 30, 100, 300 and 800 mg. Dosing was performed at time equal to 0 hours. […]

[3] = Rat brain and plasma PK; type: in vivo; details: 10 mg/kg oral, rats

Which “time at which tMeHA increase starts” value [1] does the source give for Cn1nc(N2CCC(OC(=O)N3CCN(C4CCC4)CC3)CC2)ccc1=O [Compound (I), 1-(1-methyl-6-oxo-1,6-dihydropyridazin-3-yl)piperidin-4-yl 4-cyclobutylpiperazine-1-carboxylate] here?
Its value is 30 min.

And the “time of tMeHA peak” value [1]?
The value was 2 h.

And the “tMeHA level at 8 h” value ([1]; 8 h)?
Its value is “stayed slightly elevated”.

What about the “effect on tMeHA levels” value ([1]; brain) of the same molecule?
The value was “increased”.

And the “duration of histamine release after compound administration” value ([1]; deconvolution of the PD data)?
Its value is “about 2 h”.

And the “highest tolerated repeated dose” value ([2]; healthy volunteer study, repeated dose)?
The value was 50 mg.

What about the “difference in PK, capsule vs oral solution” value ([2]; in vivo, po) of the same molecule?
Its value is “no clinically relevant difference”.

And the “single dose maximum tolerated dose (MTD)” value ([2]; single oral dose, Phase I study)?
The value was 300 mg.

What about the total brain exposure [3] of the same molecule?
The total brain exposure was “intermediate”.

And the brain exposure ([3]; 8 h time point)?
Its brain exposure is “close to detection limit”.

What about the concentration at 4 h ([3]; male, Sprague-Dawley, rat, brain, 4 h time point, read-out: brain exposure) of the same molecule?
The concentration at 4 h was 21 ng/g.
